Assay results: patent US9056108B2, “Method of treating atrial fibrillation” (Gilead Sciences, Inc., priority 2009, dated 2015)
Read-outs that look alike come from different tables or passages of the source.

Tests used:
[1] = system: isolated canine coronary-perfused right atria; experiment: Electrophysiology in isolated coronary-perfused canine right atrial preparations; details: in presence of ACh 1 μM, ranolazine 5 μM, dronedarone 10 μM
Method: Experiments were performed using isolated coronary-perfused canine right atrial (RA) and left ventricular (LV) preparations (≈3×1.5×1 cm). Isolation and perfusion of the preparations were as previously described.^9, 15, 16 Briefly, preparations were dissected from hearts removed from anesthetized (sodium pentobarbital) adult mongrel dogs (20-30 kg). Unfolded RA with attached rim of the right ventricle was cannulated and perfused with cold cardioplegic solution (4-8° C.) through the ostium of the right coronary artery; the LV wedge was perfused through a diagonal branch of the left anterior descending coronary artery. Unperfused tissue was removed with a razor blade. Cut ventricular and atrial branches were ligated using silk thread. The preparations were then transferred to a temperature-controlled bath and arterially-perfused with Tyrode's solution by use of a roller pump. The composition of the Tyrode's solution was (in mM): NaCl 129, KCl 4, NaH2PO4 0.9, NaHCO3 20, CaCl2 1.8, MgSO4 0.5, and D-glucose 5.5, buffered with 95% O2 and 5% CO2 (37±0.5° C., pH=7.35)
Transmembrane action potential (AP) recordings were obtained using floating glass microelectrodes at a sampling rate of 40 kHz. A pseudo-electrocardiogram (ECG) was recorded using two electrodes consisting of Ag/AgCl half cells placed in the Tyrode's solution bathing the preparation, 1.0 to 1.5 cm from the two opposite sides of the atrial or ventricular coronary-perfused preparations. Conduction time was approximated by the duration of “P wave” in atria and “QRS complex” in ventricles, at a level representing 10% of “P wave” and “QRS” amplitude. Diastolic threshold of excitation (DTE) was determined by increasing stimulus intensity in 0.01 mA steps. Effective refractory period (ERP) was measured by delivering premature stimuli at progressively shorter S1-S2 intervals after every 10 basic beats at a pacing cycle length (CL) of 500 ms (5 ms steps; 2 times DTE). Post-repolarization refractoriness (PRR) was recognized when ERP exceeded action potential duration measured at 90% repolarization (APD90) in the ventricle and APD measured at 70% repolarization (APD70) in atria. Ventricular ERP was coincident with APD90, whereas atrial ERP was generally coincident with APD70-75.^9 The shortest S1-S1 permitting 1:1 activation was measured by progressively shortening pacing CL starting from a CL of 500 ms.
Stable AP recordings could not be readily obtained in the vigorously contracting perfused preparations. The largest recorded maximum rate of rise of the AP upstroke (Vmax) values per experimental condition were taken for statistical comparison. Only APs having amplitudes of at least 100 mV were considered in the analysis. The largest Vmax criterion was used because this was associated with the largest amplitude and the most negative resting membrane potential, depicting full or near full impalement. In determining use-dependent depression of Vmax, values were normalized to the Vmax value at a CL of 500 ms for each experiment and then averaged.
Because of their dependence on peak INa, Vmax, DTE, PRR, and conduction time as well the shortest S1-S1 interval permitting 1:1 activation are referred to as INa-dependent parameters.
The equilibration period for the coronary-perfused preparations was 30-120 min. The preparations were exposed to 5 μM ranolazine, 10 μM dronedarone (after 30 min washout of ranolazine), and the combination of these agents for at a period of at least 20 min. In time-control experiments, 20 minutes was sufficient to achieve steady-state in the effects of each of the drugs to alter electrophysiologic parameters. Recordings were obtained at a cycle length (CL) of 500 and 300 ms, unless otherwise indicated. […] When determining the shortest S1-S1 pacing rate permitting 1:1 activation, the stimulation intensity was DTE x 2, determined at a CL of 500 ms.

[2] = system: rabbit isolated heart treated with acetylcholine; experiment: Electrically-induced atrial fibrillation in rabbit isolated heart treated with acetylcholine
Method: Each rabbit was sedated using intramuscular injections of 6 mg/kg xylazine and 40 mg/kg ketamine and then anesthetized using a “cocktail” of ketamine (15 mg/kg)+xylazine (4 mg/kg) in 1.5 ml saline. The ketamine/xylazine cocktail was administered as an i.v. bolus via the marginal ear vein. After anesthesia was confirmed, the thorax was opened and the heart was quickly excised. The heart was placed in a modified Krebs-Henseleit (K-H) physiological saline solution at room temperature. The K-H solution contained (in mmol/L): NaCl 118, KCl 2.8, KH2PO4 1.2, CaCl2 2.5, MgSO4 0.5, pyruvate 2.0, glucose 5.5, Na2EDTA 0.57 and NaHCO3 25. The solution was continuously gassed with 95% O2 and 5% CO2, and its pH was adjusted to 7.4. The aorta was rapidly catheterized and the heart was perfused by the method of Langendorff with K-H solution warmed to 36-36.5° C. at a rate of 20 mL/min with a roller pump (Gilson Minipuls3, Middleton, Wis.). CPP was measured (with a Biopac MP 150 pressure transducer, Goleta, Calif.) from a side port of the aortic catheter. To facilitate exit of fluid from the chamber of the left ventricle (LV), the leaflets of the mitral valve were trimmed with fine spring-handled scissors. The right atrial wall was partially removed. […]

[3] = system: ACh-mediated persistent AF in isolated canine coronary-perfused right atria; experiment: Acetylcholine (ACh)-mediated persistent AF model in coronary-perfused right atria; details: ranolazine 5 μM, dronedarone 10 μM
Method: To assess the anti-AF potential of ranolazine, dronedarone, and their combination, we used an acetylcholine (ACh, 1.0 μM)-mediated AF model. In the presence of ACh, premature electrical stimulation (PES) or rapid pacing (CL=50-80 ms) induces persistent AF in 100% of canine coronary-perfused right atrial preparations.^9 The effect of the drugs was assessed to prevent (series 1) the induction of AF. In a separate set of preparations, the ability of these agents was evaluated to terminate (series 2) persistent AF. In the first series, ACh was added to the perfusate 20-30 min after the start of perfusion with 5 μM ranolazine, 10 μM dronedarone, or the combination of these agents. This was followed by attempts to induce the arrhythmia electrically. In the second series, the agents were added to the perfusate during ACh-mediated persistent AF (on the 5-6th minutes after the start of the arrhythmia). In cases in which the drug terminated AF, we attempted to re-induce the arrhythmia with rapid pacing.

[4] = system: female rabbit isolated heart treated with E-4031; experiment: Torsades de pointes in rabbit isolated heart treated with E-4031; details: E-4031 60 nM
Method: Each rabbit was sedated using intramuscular injections of 6 mg/kg xylazine and 40 mg/kg ketamine and then anesthetized using a “cocktail” of ketamine (15 mg/kg)+xylazine (4 mg/kg) in 1.5 ml saline. The ketamine/xylazine cocktail was administered as an i.v. bolus via the marginal ear vein. After anesthesia was confirmed, the thorax was opened and the heart was quickly excised. The heart was placed in a modified Krebs-Henseleit (K-H) physiological saline solution at room temperature. […] CPP was measured (with a Biopac MP 150 pressure transducer, Goleta, Calif.) from a side port of the aortic catheter. To facilitate exit of fluid from the chamber of the left ventricle (LV), the leaflets of the mitral valve were trimmed with fine spring-handled scissors. The right atrial wall was partially removed.
Complete AV block was induced by thermo-ablation of the AV nodal area. […] A bipolar Teflon-coated electrode was placed on the right ventricular septum to pace the heart. Electrical stimuli 3 ms in width and 3-fold threshold amplitude were delivered to the pacing electrode at a frequency of 1 Hz throughout the experiments using a Grass S48 stimulator (W. Warwick, R.I.).
After initiation of ventricular pacing, a 30-40 min equilibration delay was allowed for heart rate (and CPP) to achieve a steady state, an essential experimental condition for recording a good quality monophasic action potential (MAP) recording.
Monophasic action potential (MAP) and ECG electrodes from Harvard Apparatus Inc. (Holliston, Mass.) were used to record heart rate (in beats per minute, or bpm), left ventricular MAPs and a bipolar ECG MAP electrodes were pressure contact Ag—AgCl cells attached to a circular holder with springs to keep the electrodes in contact with the LV epicardial surface. Two MAP electrodes were placed on the epicardial ventricular free wall below the level of the atrial-ventricular valves, one at the base to record a basal MAP and one at the apex to record an apical MAP. […] Signals were saved on a computer hard disk for subsequent analysis. Bipolar electrocardiograms (ECG) were generated using an isolated-heart ECG apparatus (Harvard Apparatus, Holliston, Mass.) attached to Biopac amplifier system.

[5] = cited from earlier work
patients with AF = details: DIONYSOS trial, 6 months of follow-up; cited from earlier work
[6] = system: spontaneous (intrinsic) atrial rate in guinea pig isolated hearts; experiment: Spontaneous atrial rate in guinea pig isolated hearts; details: verapamil 10 μM; from 225±3
Description: To perfuse the heart by the Langendorff method, the transected aorta was slid onto a glass cannula and secured by a ligature. […] To facilitate the exit of fluid from the left ventricle, the leaflets of the mitral valve were trimmed with fine spring-handled scissors. […] Experimental interventions were always preceded and followed by control measurements.

[7] = ACh 1 μM-mediated persistent AF

CC(=O)OCC[N+](C)(C)C [ACh, Acetylcholine]
Shortest S1-S1 (shortest CL permitting 1:1 activation) ([1]; in ms (unit assumed)): 56 ± 7 | APD90 ([1]; pectinate muscle, CL of 500 ms): 41 ± 6 ms | ERP ([1]; pectinate muscle, CL of 500 ms): 52 ± 9 ms | Inducibility of AF ([2]; S1S2 protocol, acetylcholine 0.6-1 μM, ranolazine 6 μM in presence of 0.3 μM dronedarone): 100% | Termination Persistent AF [3, 7]: 0% | Termination Persistent AF (atria terminated/atria tested) [3, 7]: 0/10 | Induction of Persistent AF ([3]; in presence of ACh 1 μM): 100%

Cc1cccc(CCN2CCC(C(=O)c3ccc(NS(C)(=O)=O)cc3)CC2)n1 [E-4031, N-[4-[[1-[2-(6-Methyl-2-pyridinyl)ethyl]-4-piperidinyl]carbonyl]phenyl]methanesulfonamide]
Occurrences of torsades de pointes (TdP) (hearts) ([4]; dronedarone 10 μM): 4/6 | TdP (FIG. 18) ([4]; dronedarone 0.1-0.3 μM): induced spontaneous and 3-sec pause-triggered episodes of TdP | Incidence of TdP and EADs ([4]; dronedarone 0.3-10 μM, ranolazine 6 and 10 μM): markedly increased the incidence of torsades de pointes

O=C(NCC1CCCCN1)c1cc(OCC(F)(F)F)ccc1OCC(F)(F)F (stereo not shown) [Flecainide]
Abolition of inducible AF (hearts) ([2]; in presence of ACh, dronedarone 0.3 μM alone, flecainide positive control): abolished all episodes of AF

CCCCc1oc2ccccc2c1C(=O)c1cc(I)c(OCCN(CC)CC)c(I)c1 [amiodarone]
Patients who discontinue use due to intolerant side effects ([5]; after one year): 8-18% | Extracardiac complications ([5]; first year of treatment): up to 15% | Extracardiac complications ([5]; longer term treatment): up to 50% | Rate of recurrence of AF (patients with AF): 42%

COc1ccc(CCN(C)CCCC(C#N)(c2ccc(OC)c(OC)c2)C(C)C)cc1OC (stereo not shown) [verapamil]
Spontaneous atrial rate [6]: 25±24 beats/min
